In ChEMBL document CHEMBL3860091, “Synthesis and activity of newly designed aroxyalkyl or aroxyethoxyethyl derivatives of piperazine on the cardiovascular and the central nervous systems” (Bioorg Med Chem Lett, 2016):
Active and inactive are the calls of the source. The rule behind the calls is not given here.

Key:
Rattus norvegicus [1] = experiment: Hypotensive activity in normotensive anesthetized Wistar rat assessed as systolic blood pressure at 0.5 mg/kg, iv measured 20 mins post dose (reference value: 107.4 to 148.3 mmHg); assay type: functional
Rattus norvegicus [2] = experiment: Hypotensive activity in normotensive anesthetized Wistar rat assessed as systolic blood pressure at 0.5 mg/kg, iv measured 10 mins post dose (reference value: 107.4 to 148.3 mmHg); assay type: functional
Mus musculus [3] = experiment: Toxicity in albino Swiss (CD-1) mouse assessed as effect on spontaneous locomotor activity by measuring number of crossings at 5 mg/kg, ip administered 30 mins prior to test measured for last 4 mins of 6 mins observation (reference value: 191.5 to 225.4); assay type: organism-based; conditions: in vivo
Rattus norvegicus [4] = experiment: Hypotensive activity in normotensive anesthetized Wistar rat assessed as systolic blood pressure at 0.5 mg/kg, iv measured 30 mins post dose (reference value: 107.4 to 148.3 mmHg); assay type: functional
Rattus norvegicus [5] = experiment: Hypotensive activity in normotensive anesthetized Wistar rat assessed as diastolic blood pressure at 0.5 mg/kg, iv measured 10 mins post dose (reference value: 81.6 to 115.2 mmHg); assay type: functional
Rattus norvegicus [6] = experiment: Hypotensive activity in normotensive anesthetized Wistar rat assessed as systolic blood pressure at 0.5 mg/kg, iv measured 60 mins post dose (reference value: 107.4 to 148.3 mmHg); assay type: functional
Rattus norvegicus [7] = experiment: Hypotensive activity in normotensive anesthetized Wistar rat assessed as diastolic blood pressure at 0.5 mg/kg, iv measured 20 mins post dose (reference value: 81.6 to 115.2 mmHg); assay type: functional
Rattus norvegicus [8] = experiment: Hypotensive activity in normotensive anesthetized Wistar rat assessed as diastolic blood pressure at 0.5 mg/kg, iv measured 5 mins post dose (reference value: 81.6 to 115.2 mmHg); assay type: functional
[9] = Antidepressant-like activity in albino Swiss (CD-1) mouse assessed as immobility time at 2.5 mg/kg, ip administered 30 mins prior to test measured for last 4 mins of 6 mins observation by forced swim test (reference value: 178.3 +/- 12.3 sec); assay type: functional, organism-based
Mus musculus [10] = experiment: Toxicity in albino Swiss (CD-1) mouse assessed as effect on spontaneous locomotor activity by measuring number of crossings at 10 mg/kg, ip administered 30 mins prior to test measured for last 4 mins of 6 mins observation (reference value: 191.5 to 225.4); assay type: organism-based; conditions: in vivo
Rattus norvegicus [11] = experiment: Hypotensive activity in normotensive anesthetized Wistar rat assessed as diastolic blood pressure at 0.1 mg/kg, iv measured 60 mins post dose (reference value: 81.6 to 115.2 mmHg); assay type: functional
Rattus norvegicus [12] = experiment: Hypotensive activity in normotensive anesthetized Wistar rat assessed as systolic blood pressure at 0.1 mg/kg, iv measured 60 mins post dose (reference value: 107.4 to 148.3 mmHg); assay type: functional
Rattus norvegicus [13] = experiment: Hypotensive activity in normotensive anesthetized Wistar rat assessed as diastolic blood pressure at 0.1 mg/kg, iv measured 5 mins post dose (reference value: 81.6 to 115.2 mmHg); assay type: functional
Rattus norvegicus [14] = experiment: Hypotensive activity in normotensive anesthetized Wistar rat assessed as diastolic blood pressure at 0.1 mg/kg, iv measured 20 mins post dose (reference value: 81.6 to 115.2 mmHg); assay type: functional
Rattus norvegicus [15] = experiment: Inhibition of methoxamine-induced pressor response in normotensive Wistar rat at 1 mg/kg, iv measured 5 mins post dose; assay type: functional, organism-based
Rattus norvegicus [16] = experiment: Hypotensive activity in normotensive anesthetized Wistar rat assessed as systolic blood pressure at 0.1 mg/kg, iv measured 10 mins post dose (reference value: 107.4 to 148.3 mmHg); assay type: functional
Rattus norvegicus [17] = experiment: Hypotensive activity in normotensive anesthetized Wistar rat assessed as systolic blood pressure at 0.1 mg/kg, iv measured 20 mins post dose (reference value: 107.4 to 148.3 mmHg); assay type: functional
Rattus norvegicus [18] = experiment: Inhibition of adrenaline-induced pressor response in normotensive Wistar rat at 1 mg/kg, iv measured 5 mins post dose; assay type: functional, organism-based
Rattus norvegicus [19] = experiment: Hypotensive activity in normotensive anesthetized Wistar rat assessed as diastolic blood pressure at 0.1 mg/kg, iv measured 10 mins post dose (reference value: 81.6 to 115.2 mmHg); assay type: functional
Rattus norvegicus [20] = experiment: Hypotensive activity in normotensive anesthetized Wistar rat assessed as systolic blood pressure at 0.1 mg/kg, iv measured 5 mins post dose (reference value: 107.4 to 148.3 mmHg); assay type: functional
Rattus norvegicus [21] = experiment: Hypotensive activity in normotensive anesthetized Wistar rat assessed as systolic blood pressure at 0.1 mg/kg, iv measured 30 mins post dose (reference value: 107.4 to 148.3 mmHg); assay type: functional
Rattus norvegicus [22] = experiment: Hypotensive activity in normotensive anesthetized Wistar rat assessed as diastolic blood pressure at 0.1 mg/kg, iv measured 30 mins post dose (reference value: 81.6 to 115.2 mmHg); assay type: functional

SMILES | Activity (Rattus norvegicus [1]) [mmHg] | Activity (Rattus norvegicus [2]) [mmHg] | Activity (Mus musculus [3]) | Activity (Rattus norvegicus [4]) [mmHg] | Activity (Rattus norvegicus [5]) [mmHg] | Activity (Rattus norvegicus [6]) [mmHg] | Activity (Rattus norvegicus [7]) [mmHg] | Activity (Rattus norvegicus [8]) [mmHg] | further results
Cc1cccc(Cl)c1OCCCCN1CCN(c2ccccc2)CC1.Cl.Cl | 138 | 135.3 | 152.4 | 131.5 | 101 | 130.8 | 102.5 | 100.5 | –
COc1ccccc1N1CCN(CCOCCOc2cccc(C)c2C)CC1.Cl.Cl | – | – | 232.5 | – | – | – | – | – | TIME [9]: 0.0447 h; Activity (Mus musculus [10]): 190
COc1ccccc1N1CCN(CCCCOc2c(C)cccc2C)CC1.Cl | 121.7 | 122.7 | – | 119.3 | 100.8 | 115.3 | 99.8 | 102 | Activity (Rattus norvegicus [11]): 101.3 mmHg; Activity (Rattus norvegicus [12]): 127.7 mmHg; Activity (Rattus norvegicus [13]): 112.7 mmHg; Activity (Rattus norvegicus [14]): 104 mmHg; inhibition (Rattus norvegicus [15]): Active; Activity (Rattus norvegicus [16]): 138.3 mmHg; Activity (Rattus norvegicus [17]): 131.7 mmHg; inhibition (Rattus norvegicus [18]): Active; Activity (Rattus norvegicus [19]): 112.7 mmHg; Activity (Rattus norvegicus [20]): 142.7 mmHg; Activity (Rattus norvegicus [21]): 130.3 mmHg; Activity (Rattus norvegicus [22]): 103 mmHg
